Measurements from patent US7504420B2, “Compounds which inhibit beta-secretase activity and methods of use” (CoMentis, Inc., priority 2005, dated 2009).
Where two headings read alike, the source gives them in different places.

How the values were obtained:
memapsin 2 = memapsin 2 (Homo sapiens, UniProt P56817); experiment: Inhibition of memapsin 2 catalytic activity (Ki); format: biochemical; settings: memapsin 2, pH 4, 37° C.; read-out: M2K
Outline: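 Run at 37 °C and pH 4: compound and enzyme pre-incubated 20 min before FS-2 fluorogenic substrate started hydrolysis,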

cathepsin D = cathepsin D (Homo sapiens, UniProt P07339); experiment: Inhibition of cathepsin D catalytic activity (Ki); format: biochemical; settings: pH 4.0, 37° C., read-out: CDK
Description: A substrate peptide NH3-ELDLAVEFWHDR-CO2 (SEQ ID NO.:1) (used for inhibition assay of memapsin 2, memapsin 1, and cathepsin D) was dissolved at 2 mg/ml in DMSO and diluted 1:100 in 0.1 M sodium acetate, pH 4.0 just prior to assay. Inhibitor dissolved in DMSO was diluted into 0.1 M sodium acetate, pH 4.0 (1:100 dilution). A […] aliquot of the inhibitor solution in pH 4 buffer was combined with […] of 0.1 M sodium acetate containing 100-200 nM of memapsin 1, memapsin 2, or cathepsin D. Following a pre-incubation at 37° C., the proteolytic assay was initated by addition of […] of the substrate diluted into pH 4 buffer, and incubation continued at 37° C. Aliquots were removed at time intervals, and combined with an equal volume of MALDI-TOF matrix (α-hydroxycinnamic acid in acetone, 20 mg/ml) and immediately spotted in duplicate onto a stainless-steel MALDI sample plate. MALDI-TOF mass spectrometry was performed on a PE Biosystems Voyager DE instrument at the Molecular Biology Resource Center on campus. The instrument was operated at 25,000 accelerating volts in positive mode with a 150 ns delay. Ions with a mass-to-charge ratio (m/z) were detected in the range of 650-2000 atomic mass units. Data were analyzed by the Voyager Data Explorer module to obtain ion intensity data for mass species of substrates and corresponding products in a given mixture. Relative product formation was calculated as the ratio of signal intensity of the product to the sum of signal intensities of both product and the corresponding substrate. Relative product formed per unit time was obtained from non-linear regression analysis of the data representing the initial 15% formation of product using the model: 1−e^−kT, where k was the relative hydrolytic rate constant and T was time in seconds. Alternatively, relative hydrolytic rates were determined using a fluorogenic cleavage assay (Ermolieff, J. et al., Biochemistry, 39: 12450-12456 (2000)). Initial rates from either method were expressed relative to uninhibited controls and the inhibition constant Ki was determined by a non-linear fit to a tight-binding model of competitive inhibition (Bieth, J., Bayer-Symposium V: Proteinase Inhibitors, pp 463-469, Spinger-Varlag, Berlin (1994)). Results are shown in Table 1 above (M2K, CDK, and M1K columns represent, respectively, the K1 values obtained for memapsin 2, cathepsin D and memapsin 1).

[1] = tested on: Aβ production in Chinese hamster ovary cells that over-express human APP695 with the London and Swedish mutations; experiment: Cellular Aβ IC50 determination (Aβ40 sandwich ELISA); settings: 24 h
[2] = Cricetulus griseus, CHO, read-out: Cell, Aβ40, CHO cells over-expressing human APP695 (London and Swedish mutations), 24 h

Sequence of memapsin 2 (P56817 46-501): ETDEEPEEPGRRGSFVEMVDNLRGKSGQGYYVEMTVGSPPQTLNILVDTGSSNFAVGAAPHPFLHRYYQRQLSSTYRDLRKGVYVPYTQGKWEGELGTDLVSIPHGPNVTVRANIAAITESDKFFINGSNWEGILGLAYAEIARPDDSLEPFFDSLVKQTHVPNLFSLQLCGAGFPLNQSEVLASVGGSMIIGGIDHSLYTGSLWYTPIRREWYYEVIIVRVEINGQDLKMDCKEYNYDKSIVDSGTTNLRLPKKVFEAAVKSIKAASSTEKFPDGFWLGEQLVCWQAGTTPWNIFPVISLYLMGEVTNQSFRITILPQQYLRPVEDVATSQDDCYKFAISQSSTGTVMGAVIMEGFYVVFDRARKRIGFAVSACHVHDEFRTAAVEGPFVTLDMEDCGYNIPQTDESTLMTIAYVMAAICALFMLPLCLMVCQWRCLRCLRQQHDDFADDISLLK
Sequence of cathepsin D (P07339 65-412, species assumed): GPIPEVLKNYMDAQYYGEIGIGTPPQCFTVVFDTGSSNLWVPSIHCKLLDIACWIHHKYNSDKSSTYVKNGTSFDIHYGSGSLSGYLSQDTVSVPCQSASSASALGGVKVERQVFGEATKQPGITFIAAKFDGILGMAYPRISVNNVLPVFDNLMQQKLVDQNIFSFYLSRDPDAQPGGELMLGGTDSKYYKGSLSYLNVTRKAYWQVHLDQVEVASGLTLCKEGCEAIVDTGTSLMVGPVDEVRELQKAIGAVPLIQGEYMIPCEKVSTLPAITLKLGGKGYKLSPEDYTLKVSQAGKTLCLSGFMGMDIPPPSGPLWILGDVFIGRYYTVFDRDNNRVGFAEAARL

For COc1cccc(CNCC(O)C(Cc2ccccc2)NC(=O)c2cccc(C(=O)N(C)Cc3nc(C)cs3)c2F)c1 (stereo not drawn) [2-fluoro-N1-(3-hydroxy-4-(3-methoxybenzylamino)-1-phenylbutan-2-yl)-N3-methyl-N3-((4-methylthiazol-2-yl)methyl)isophthalamide], which Ki (memapsin 2) is on record?
The Ki was greater than 501 nM.

What about the Ki (cathepsin D) of the same compound?
Its Ki is less than 300 nM.

And the IC50 [1, 2]?
Its IC50 is 1000 to 5000 nM.

How did the Ki (memapsin 2) turn out when COc1cccc(CNCC(O)C(Cc2ccccc2)NC(=O)c2cccc(C(=O)N(Cc3nc(C)cs3)N(C)C)c2)c1 (stereo not drawn) [3-(2,2-dimethyl-1-((4-methylthiazol-2-yl)methyl)hydrazinecarbonyl)-N-(3-hydroxy-4-(3-methoxybenzylamino)-1-phenylbutan-2-yl)benzamide] was run?
The Ki was greater than 501 nM.

And the Ki (cathepsin D)?
The Ki was greater than 501 nM.

And the IC50 [1, 2]?
Its IC50 is greater than 5000 nM.

With COc1cccc(CNCC(O)C(Cc2ccccc2)NC(=O)c2cc(C(=O)NC(C)c3ccccc3)c(F)cc2F)c1 (stereo not drawn) [4,6-difluoro-N1-(3-hydroxy-4-(3-methoxybenzylamino)-1-phenylbutan-2-yl)-N3-(1-phenylethyl)isophthalamide] as the compound, how does the Ki (memapsin 2) read?
Its Ki is greater than 501 nM.

And the Ki (cathepsin D)?
Its Ki is less than 300 nM.

And the IC50 [1, 2]?
The IC50 was 1000 to 5000 nM.

How did the Ki (memapsin 2) turn out when COc1cccc(CNCC(O)C(Cc2ccccc2)NC(=O)c2cc(C(=O)NC(C)C3CCCCC3)cc(N(C)S(C)(=O)=O)c2)c1 (stereo not drawn) [N1-(1-cyclohexylethyl)-N3-(3-hydroxy-4-(3-methoxybenzylamino)-1-phenylbutan-2-yl)-5-(N-methylmethylsulfonamido)isophthalamide] was run?
Its Ki is less than 300 nM.

And the Ki (cathepsin D)?
Its Ki is less than 300 nM.

What about the IC50 [1, 2] of the same compound?
Its IC50 is less than 1000 nM.

How did the Ki (memapsin 2) turn out when CC(NCC(O)C(Cc1ccccc1)NC(=O)c1cc(C(=O)NC(C)c2ccccc2)cc(N(C)S(C)(=O)=O)c1)c1cccnc1 (stereo not drawn) [N1-(3-hydroxy-1-phenyl-4-(1-(pyridin-3-yl)ethylamino)butan-2-yl)-5-(N-methylmethylsulfonamido)-N3-(1-phenylethyl)isophthalamide] was run?
Its Ki is less than 300 nM.

And the Ki (cathepsin D)?
Its Ki is less than 300 nM.

What about the IC50 [1, 2] of the same compound?
The IC50 was less than 1000 nM.

With CC(NC(=O)c1cc(C(=O)NC(Cc2ccccc2)C(O)CNCCN2CCCCC2)cc(N(C)S(C)(=O)=O)c1)c1ccccc1 (stereo not drawn) [N1-(3-hydroxy-1-phenyl-4-(2-(piperidin-1-yl)ethylamino)butan-2-yl)-5-(N-methylmethylsulfonamido)-N3-(1-phenylethyl)isophthalamide] as the compound, how does the Ki (memapsin 2) read?
Its Ki is greater than 501 nM.

And the Ki (cathepsin D)?
Its Ki is greater than 501 nM.

And the IC50 [1, 2]?
Its IC50 is greater than 5000 nM.

CC(NC(=O)c1cc(C(=O)NC(Cc2ccccc2)C(O)CNCCN2CCCC2)cc(N(C)S(C)(=O)=O)c1)c1ccccc1 (stereo not drawn) [N1-(3-hydroxy-1-phenyl-4-(2-(pyrrolidin-1-yl)ethylamino)butan-2-yl)-5-(N-methylmethylsulfonamido)-N3-(1-phenylethyl)isophthalamide] was tested. Which Ki (memapsin 2) did it give?
The Ki was greater than 501 nM.

And the Ki (cathepsin D)?
Its Ki is greater than 501 nM.

What about the IC50 [1, 2] of the same compound?
The IC50 was greater than 5000 nM.

For Cc1csc(CN(C)C(=O)c2cccc(C(=O)NC(Cc3ccccc3)C(O)CNCCN3CCCC3)c2)n1 (stereo not drawn) [N1-(3-hydroxy-1-phenyl-4-(2-(pyrrolidin-1-yl)ethylamino)butan-2-yl)-N3-methyl-N3-((4-methylthiazol-2-yl)methyl)isophthalamide], which Ki (memapsin 2) is on record?
Its Ki is greater than 501 nM.

And the Ki (cathepsin D)?
The Ki was greater than 501 nM.

What about the IC50 [1, 2] of the same compound?
Its IC50 is greater than 5000 nM.

Which results are given for CC(NC(=O)c1cc(C(=O)NC(Cc2ccccc2)C(O)CNCc2cccc(C(F)(F)F)c2)cc(N(C)S(C)(=O)=O)c1)c1ccccc1 (stereo not drawn) [N1-(3-hydroxy-1-phenyl-4-(3-(trifluoromethyl)benzylamino)butan-2-yl)-5-(N-methylmethylsulfonamido)-N3-(1-phenylethyl)isophthalamide]?
Ki (memapsin 2): < 300 nM; Ki (cathepsin D): < 300 nM; IC50 [1, 2]: < 1000 nM

Which Ki (memapsin 2) does the source give for CC(NC(=O)c1cc(C(=O)NC(Cc2ccccc2)C(O)CNCC2CCCNC2)cc(N(C)S(C)(=O)=O)c1)c1ccccc1 (stereo not drawn) [N1-(3-hydroxy-1-phenyl-4-(piperidin-3-ylmethylamino)butan-2-yl)-5-(N-methylmethylsulfonamido)-N3-(1-phenylethyl)isophthalamide] here?
Its Ki is greater than 501 nM.

What about the Ki (cathepsin D) of the same compound?
Its Ki is greater than 501 nM.

And the IC50 [1, 2]?
The IC50 was greater than 5000 nM.

What does the source list for CC(NC(=O)c1cc(C(=O)NC(Cc2ccccc2)C(O)CNCC2CCNCC2)cc(N(C)S(C)(=O)=O)c1)c1ccccc1 (stereo not drawn) [N1-(3-hydroxy-1-phenyl-4-(piperidin-4-ylmethylamino)butan-2-yl)-5-(N-methylmethylsulfonamido)-N3-(1-phenylethyl)isophthalamide]?
Ki (memapsin 2): > 501 nM; Ki (cathepsin D): > 501 nM; IC50 [1, 2]: > 5000 nM

CC(NC(=O)c1cc(C(=O)NC(Cc2ccccc2)C(O)CNCc2cnccn2)cc(N(C)S(C)(=O)=O)c1)c1ccccc1 (stereo not drawn) [N1-(3-hydroxy-1-phenyl-4-(pyrazin-2-ylmethylamino)butan-2-yl)-5-(N-methylmethylsulfonamido)-N3-(1-phenylethyl)isophthalamide] was tested. Which Ki (memapsin 2) did it give?
The Ki was less than 300 nM.

And the Ki (cathepsin D)?
The Ki was greater than 501 nM.

And the IC50 [1, 2]?
Its IC50 is less than 1000 nM.

Which results are given for CC(NC(=O)c1cc(C(=O)NC(Cc2ccccc2)C(O)CNCc2cnc3ccccc3c2)cc(N(C)S(C)(=O)=O)c1)c1ccccc1 (stereo not drawn) [N1-(3-hydroxy-1-phenyl-4-(quinolin-3-ylmethylamino)butan-2-yl)-5-(N-methylmethylsulfonamido)-N3-(1-phenylethyl)isophthalamide]?
Ki (memapsin 2): < 300 nM; Ki (cathepsin D): < 300 nM; IC50 [1, 2]: < 1000 nM

COc1cccc(C(C)NCC(O)C(Cc2ccccc2)NC(=O)c2cc(C(=O)NC(C)c3cccc(OC)c3)cc(N(C)S(C)(=O)=O)c2)c1 (stereo not drawn) [N1-(3-hydroxy-4-(1-(3-methoxyphenyl)ethylamino)-1-phenylbutan-2-yl)-N3-(1-(3-methoxyphenyl)ethyl)-5-(N-methylmethylsulfonamido)isophthalamide] was tested. Which Ki (memapsin 2) did it give?
Its Ki is less than 300 nM.

What about the Ki (cathepsin D) of the same compound?
The Ki was less than 300 nM.

What about the IC50 [1, 2] of the same compound?
The IC50 was less than 1000 nM.

For COc1ccccc1CCNCC(O)C(Cc1ccccc1)NC(=O)c1cc(C(=O)NC(C)c2ccccc2)cc(N(C)S(C)(=O)=O)c1 (stereo not drawn) [N1-(3-hydroxy-4-(2-methoxyphenethylamino)-1-phenylbutan-2-yl)-5-(N-methylmethylsulfonamido)-N3-(1-phenylethyl)isophthalamide], which Ki (memapsin 2) is on record?
The Ki was less than 300 nM.

And the Ki (cathepsin D)?
The Ki was less than 300 nM.

And the IC50 [1, 2]?
The IC50 was 1000 to 5000 nM.

For CC(NC(=O)c1cc(C(=O)NC(Cc2ccccc2)C(O)CNCCN2CCOCC2)cc(N(C)S(C)(=O)=O)c1)c1ccccc1 (stereo not drawn) [N1-(3-hydroxy-4-(2-morpholinoethylamino)-1-phenylbutan-2-yl)-5-(N-methylmethylsulfonamido)-N3-(1-phenylethyl)isophthalamide], which Ki (memapsin 2) is on record?
The Ki was 301 to 500 nM.

And the Ki (cathepsin D)?
The Ki was greater than 501 nM.

And the IC50 [1, 2]?
Its IC50 is 1000 to 5000 nM.

Which Ki (memapsin 2) does the source give for CC(C)Cc1cccc(CNCC(O)C(Cc2ccccc2)NC(=O)c2cc(C(=O)NC(C)c3ccccc3)cc(N(C)S(C)(=O)=O)c2)c1 (stereo not drawn) [N1-(3-hydroxy-4-(3-isobutylbenzylamino)-1-phenylbutan-2-yl)-5-(N-methylmethylsulfonamido)-N3-(1-phenylethyl)isophthalamide] here?
Its Ki is less than 300 nM.

And the Ki (cathepsin D)?
The Ki was less than 300 nM.

And the IC50 [1, 2]?
Its IC50 is less than 1000 nM.

Which Ki (memapsin 2) does the source give for Cc1csc(CN(C)C(=O)c2cccc(C(=O)NC(Cc3ccccc3)C(O)CNCc3cccc(OC(C)C)c3)c2)n1 (stereo not drawn) [N1-(3-hydroxy-4-(3-isopropoxybenzylamino)-1-phenylbutan-2-yl)-N3-methyl-N3-((4-methylthiazol-2-yl)methyl)isophthalamide] here?
The Ki was less than 300 nM.

And the Ki (cathepsin D)?
Its Ki is less than 300 nM.

What about the IC50 [1, 2] of the same compound?
Its IC50 is less than 1000 nM.

Which results are given for Cc1ccc(CNCC(O)C(Cc2ccccc2)NC(=O)c2cc(C(=O)NC(C)c3ccccc3)cc(N(C)S(C)(=O)=O)c2)o1 (stereo not drawn) [N1-(3-hydroxy-4-((5-methylfuran-2-yl)methylamino)-1-phenylbutan-2-yl)-5-(N-methylmethylsulfonamido)-N3-(1-phenylethyl)isophthalamide]?
Ki (memapsin 2): < 300 nM; Ki (cathepsin D): < 300 nM

For CC(NCC(O)C(Cc1ccccc1)NC(=O)c1cc(C(=O)NC(C)c2ccccc2)cc(N(C)S(C)(=O)=O)c1)c1cccc(F)c1 (stereo not drawn) [N1-(4-(1-(3-fluorophenyl)ethylamino)-3-hydroxy-1-phenylbutan-2-yl)-5-(N-methylmethylsulfonamido)-N3-(1-phenylethyl)isophthalamide], which Ki (memapsin 2) is on record?
The Ki was less than 300 nM.

And the Ki (cathepsin D)?
Its Ki is less than 300 nM.

“N3-(3-hydroxy-4-(3-methoxybenzylamino)-1-phenylbutan-2-yl)-4- or 6-methyl-N1-(1-phenylethyl)isophthalamide” was tested. Which Ki (cathepsin D) did it give?
The Ki was less than 300 nM.

What about the IC50 ([1]; read-out: Cell, Aβ40, CHO cells over-expressing human APP695 (London and Swedish mutations)) of the same compound?
Its IC50 is 1000 to 5000 nM.
